According to US20260049092A1, “ANTIBACTERIAL COMPOUNDS” (Blacksmith Medicines, Inc., priority 2022, published 2026):
Converted amounts (≈) assume the structure as drawn. Read-outs that look alike come from different tables or passages of the source.

Key:
Assay in all cases: Bacterial susceptibility testing (MIC, broth microdilution)
Format in all cases: cell-based
[1] = test system: E. coli ATCC25922; details: for MIC: Escherichia coli
How it was run: (§1)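 CLSI broth microdilution was run in cation-adjusted Mueller-Hinton broth with an inoculum of 3×10^5–7×10^5 CFU/mL and 2-fold compound dilutions. Plates were incubated in ambient air at 35° C for 18-24 h. MIC was the lowest concentration preventing visible growth (OD600 nm<0.05).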

[2] = test system: K. pneumoniae ATCC13883; details: for MIC: Klebsiella pneumoniae
How it was run: as §1

[3] = test system: P. aeruginosa ATCC27853; details: for MIC: Pseudomonas aeruginosa
How it was run: as §1

[4] = test system: P. aeruginosa PAO1; details: for MIC: Pseudomonas aeruginosa
How it was run: as §1

[5] = ATCC25922, broth microdilution, cation adjusted Mueller-Hinton Broth, 35° C., 18-24 h, read-out: E. coli ATCC25922 MIC
[6] = ATCC13883, broth microdilution, cation adjusted Mueller-Hinton Broth, 35° C., 18-24 h, read-out: K. pneumoniae ATCC13883 MIC
[7] = ATCC27853, broth microdilution, cation adjusted Mueller-Hinton Broth, 35° C., 18-24 h, read-out: P. aeruginosa ATCC27853 MIC
[8] = PAO1, broth microdilution, cation adjusted Mueller-Hinton Broth, 35° C., 18-24 h, read-out: P. aeruginosa PAO1 MIC
[9] = broth microdilution, cation adjusted Mueller-Hinton Broth, 35° C., 18-24 h
[10] = ATCC25922, read-out: E. coli ATCC25922 MIC
[11] = ATCC13883, read-out: K. pneumoniae ATCC13883 MIC
[12] = ATCC27853, read-out: P. aeruginosa ATCC27853 MIC
[13] = PAO1, read-out: P. aeruginosa PAO1 MIC

Compound	MIC [1, 5] [µg/mL]	MIC [2, 6] [µg/mL]	MIC [3, 7] [µg/mL]	MIC [4, 8] [µg/mL]	other results
CNC(=O)CN1CC(Oc2ccc(-c3ccc(C#C[C@@H](CO)n4ccnc4[C@H](C)O)cc3)cc2)C1 (single isomer, unassigned) [Compound 100]	1 (≈ 2.11 µM)	2 (≈ 4.21 µM)	2 (≈ 4.21 µM)	2 (≈ 4.21 µM)	–
C[C@H](O)c1nccn1[C@@H](C#Cc1ccc(-c2ccc(OC3CCN(CC#N)CC3)cc2)cc1)CO (single isomer, unassigned) [Compound 103]	1 (≈ 2.13 µM)	2 (≈ 4.25 µM)	2 (≈ 4.25 µM)	2 (≈ 4.25 µM)	–
C[C@H](O)c1nccn1[C@@H](C#Cc1ccc(-c2ccc(CC3CN(CC#N)C3)cc2)cc1)CO (single isomer, unassigned) [Compound 105]	1 (≈ 2.27 µM)	1 (≈ 2.27 µM)	4 (≈ 9.08 µM)	4 (≈ 9.08 µM)	–
C[C@H](O)c1nccn1[C@@H](C#Cc1ccc(-c2ccc(OC3COC3)cc2)cc1)CO (single isomer, unassigned) [Compound 107]	0.25 (≈ 0.618 µM)	0.5 (≈ 1.24 µM)	4 (≈ 9.89 µM)	2 (≈ 4.94 µM)	–
C[C@H](O)c1nccn1[C@@H](C#Cc1ccc(-c2ccc(N3CCC3=O)cc2)cc1)CO (single isomer, unassigned) [Compound 109]	0.62 (≈ 1.54 µM)	1.5 (≈ 3.74 µM)	> 32	2 (≈ 4.98 µM)	–
Cc1cc(-c2ccc(C#C[C@@H](CO)n3ccnc3[C@H](C)O)cc2)ccc1O[C@@H]1COC[C@H]1O (single isomer, unassigned) [Compound 113]	4 (≈ 8.92 µM)	8 (≈ 17.8 µM)	> 32	32 (≈ 71.3 µM)	–
Cc1cc(-c2ccc(C#C[C@@H](CO)n3ccnc3[C@H](C)O)cc2)ccc1O[C@H]1COC[C@@H]1O (single isomer, unassigned) [Compound 114]	4 (≈ 8.92 µM)	8 (≈ 17.8 µM)	> 32	16 (≈ 35.7 µM)	–
C[C@H](O)c1nccn1[C@@H](C#Cc1ccc(-c2ccc([C@H]3COC[C@@H]3O)cc2)cc1)CO (single isomer, unassigned) [Compound 115]	1 (≈ 2.39 µM)	1 (≈ 2.39 µM)	8 (≈ 19.1 µM)	2 (≈ 4.78 µM)	–
C[C@H](O)c1nccn1[C@@H](C#Cc1ccc(-c2ccc([C@@H]3COC[C@H]3O)cc2)cc1)CO (single isomer, unassigned) [Compound 116]	0.5 (≈ 1.19 µM)	2 (≈ 4.78 µM)	4 (≈ 9.56 µM)	1 (≈ 2.39 µM)	–
C[C@H](O)c1nccn1[C@@H](C#Cc1ccc(-c2ccc(CO[C@@H]3COC[C@H]3O)cc2)cc1)CO (single isomer, unassigned) [Compound 123]	2 (≈ 4.46 µM)	2 (≈ 4.46 µM)	4 (≈ 8.92 µM)	2 (≈ 4.46 µM)	–
CO[C@@H]1COC[C@H]1Oc1ccc(-c2ccc(C#C[C@@H](CO)n3ccnc3[C@H](C)O)cc2)cc1 (single isomer, unassigned) [Compound 125]	–	–	–	–	E. coli ATCC25922 MIC [1, 9]: 1 µg/mL; K. pneumoniae ATCC13883 MIC [2, 9]: 2 µg/mL; P. aeruginosa ATCC27853 MIC [3, 9]: 8 µg/mL; P. aeruginosa PAO1 MIC [4, 9]: 2 µg/mL
CO[C@@H]1COC[C@H]1Oc1ccc(-c2ccc(C#C[C@@H](CO)n3ccnc3[C@H](C)O)cc2)cc1 (single isomer, unassigned) [Compound 126]	0.5 (≈ 1.11 µM)	1 (≈ 2.23 µM)	4 (≈ 8.92 µM)	2 (≈ 4.46 µM)	–
C[C@H](O)c1ccc(-c2ccc(C#C[C@@H](CO)n3ccnc3[C@H](C)O)cc2)cc1 (single isomer, unassigned) [Compound 134]	1 (≈ 2.66 µM)	8 (≈ 21.3 µM)	8 (≈ 21.3 µM)	4 (≈ 10.6 µM)	–
CC(=O)NCc1ccc(-c2ccc(C#C[C@@H](CO)n3ccnc3[C@H](C)O)cc2)cc1 (single isomer, unassigned) [Compound 143]	4 (≈ 9.91 µM)	4 (≈ 9.91 µM)	8 (≈ 19.8 µM)	2 (≈ 4.96 µM)	–
C[C@H](O)c1nccn1[C@@H](C#Cc1ccc(-c2ccc(NC3CC(NCC#N)C3)cc2)cc1)CO (stereo partly drawn) [Compound 68, 2-((3-((4′-((S)-4-hydroxy-3-(2-((S)-1-hydroxyethyl)-1H-imidazol-1-yl)but-1-yn-1-yl)-[1,1′-biphenyl]-4-yl)amino)cyclobutyl)amino) acetonitrile]	1 (≈ 2.2 µM)	2 (≈ 4.39 µM)	4 (≈ 8.78 µM)	2 (≈ 4.39 µM)	–
C[C@H](O)c1nccn1[C@@H](C#Cc1ccc(-c2ccc(N[C@H]3COC[C@@H]3O)cc2)cc1)CO [Compound 71, (3R,4S)-4-((4′-((S)-4-hydroxy-3-(2-((S)-1-hydroxyethyl)-1H-imidazol-1-yl)but-1-yn-1-yl)-[1,1′-biphenyl]-4-yl)amino)tetrahydrofuran-3-ol]	2 (≈ 4.61 µM)	4 (≈ 9.23 µM)	4 (≈ 9.23 µM)	4 (≈ 9.23 µM)	–
C[C@H](O)c1nccn1[C@@H](C#Cc1ccc(-c2ccc(O[C@@H]3CCOC[C@H]3O)cc2)cc1)CO [Compound 72, (3R,4R)-4-((4′-((S)-4-hydroxy-3-(2-((S)-1-hydroxyethyl)-1H-imidazol-1-yl)but-1-yn-1-yl)-[1,1′-biphenyl]-4-yl)oxy)tetrahydro-2H-pyran-3-ol]	1 (≈ 2.23 µM)	2 (≈ 4.46 µM)	8 (≈ 17.8 µM)	2 (≈ 4.46 µM)	–
C[C@H](O)c1nccn1[C@@H](C#Cc1ccc(-c2ccc(O[C@H]3CCOC[C@@H]3O)cc2)cc1)CO [Compound 73, (3S,4S)-4-((4′-((S)-4-hydroxy-3-(2-((S)-1-hydroxyethyl)-1H-imidazol-1-yl)but-1-yn-1-yl)-[1,1′-biphenyl]-4-yl)oxy)tetrahydro-2H-pyran-3-ol]	2 (≈ 4.46 µM)	2 (≈ 4.46 µM)	8 (≈ 17.8 µM)	2 (≈ 4.46 µM)	–
C[C@H](O)c1nccn1[C@@H](C#Cc1ccc(-c2ccc(N[C@@H]3CCC[C@H]3O)cc2)cc1)CO [Compound 78, (1R,2R)-2-((4′-((S)-4-hydroxy-3-(2-((S)-1-hydroxyethyl)-1H-imidazol-1-yl)but-1-yn-1-yl)-[1,1′-biphenyl]-4-yl)amino)cyclopentan-1-ol]	1 (≈ 2.32 µM)	4 (≈ 9.27 µM)	4 (≈ 9.27 µM)	4 (≈ 9.27 µM)	–
C[C@H](O)c1nccn1[C@@H](C#Cc1ccc(-c2ccc(NC3CN(CCC#N)C3)cc2)cc1)CO [Compound 79, 3-(3-((4′-((S)-4-hydroxy-3-(2-((S)-1-hydroxyethyl)-1H-imidazol-1-yl)but-1-yn-1-yl)-[1,1′-biphenyl]-4-yl)amino)azetidin-1-yl)propanenitrile]	–	–	–	–	MIC [1, 10]: 1 µg/mL (≈ 2.2 µM); MIC [2, 11]: 8 µg/mL (≈ 17.6 µM); MIC [3, 12]: 4 µg/mL (≈ 8.78 µM); MIC [4, 13]: 2 µg/mL (≈ 4.39 µM)
C[C@H](O)c1nccn1[C@@H](C#Cc1ccc(-c2ccc(OCC3(C)COC3)cc2)cc1)CO [Compound 80, (S)-2-(2-((S)-1-hydroxyethyl)-1H-imidazol-1-yl)-4-(4′-((3-methyloxetan-3-yl)methoxy)-[1,1′-biphenyl]-4-yl)but-3-yn-1-ol]	0.5 (≈ 1.16 µM)	2 (≈ 4.62 µM)	4 (≈ 9.25 µM)	2 (≈ 4.62 µM)	–
C[C@H](O)c1nccn1[C@@H](C#Cc1ccc(-c2ccc(NC3CC3)cc2)cc1)CO [Compound 81, (S)-4-(4′-(cyclopropylamino)-[1,1′-biphenyl]-4-yl)-2-(2-((S)-1-hydroxyethyl)-1H-imidazol-1-yl)but-3-yn-1-ol]	–	–	–	–	MIC [1, 10]: 0.25 µg/mL (≈ 0.645 µM); MIC [2, 11]: 0.5 µg/mL (≈ 1.29 µM); MIC [3, 12]: 8 µg/mL (≈ 20.6 µM); MIC [4, 13]: 2 µg/mL (≈ 5.16 µM)
C[C@H](O)c1nccn1[C@@H](C#Cc1ccc(-c2ccc3c(c2)OCCO3)cc1)CO [Compound 82, (S)-4-(4-(2,3-dihydrobenzo[b][1,4]dioxin-6-yl)phenyl)-2-(2-((S)-1-hydroxyethyl)-1H-imidazol-1-yl) but-3-yn-1-ol]	0.25 (≈ 0.64 µM)	1 (≈ 2.56 µM)	> 32	4 (≈ 10.2 µM)	–
C[C@H](O)c1nccn1[C@@H](C#Cc1ccc(-c2ccc3c(c2)NCCO3)cc1)CO [Compound 83, (S)-4-(4-(3,4-dihydro-2H-benzo[b][1,4]oxazin-6-yl)phenyl)-2-(2-((S)-1-hydroxyethyl)-1H-imidazol-1-yl)but-3-yn-1-ol]	2 (≈ 5.14 µM)	4 (≈ 10.3 µM)	> 32	16 (≈ 41.1 µM)	–
